US8450306B2, “Bradykinin B1-receptor antagonists” (Boehringer Ingelheim International GmbH, priority 2007, dated 2013)

Biological target: T1, hBK1 receptor (Homo sapiens, UniProt P46663)
T1 construct: expressed in transfected cells; host or cells: CHO cells (membrane homogenate)
T1 sequence (P46663 1-353): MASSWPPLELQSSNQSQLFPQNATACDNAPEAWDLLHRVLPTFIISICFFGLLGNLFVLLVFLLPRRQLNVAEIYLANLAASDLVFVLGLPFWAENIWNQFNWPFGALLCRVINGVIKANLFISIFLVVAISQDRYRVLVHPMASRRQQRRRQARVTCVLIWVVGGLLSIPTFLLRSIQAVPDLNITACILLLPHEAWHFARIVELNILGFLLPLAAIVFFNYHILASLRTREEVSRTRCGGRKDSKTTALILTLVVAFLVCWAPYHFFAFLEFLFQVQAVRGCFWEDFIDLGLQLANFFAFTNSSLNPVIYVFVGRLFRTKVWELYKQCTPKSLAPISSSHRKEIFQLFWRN
Experiment: hBK1 receptor binding
Conditions: membranes of CHO cells expressing the hBK1 receptor; radioligand 0.5 to 1.0 nM kallidin (DesArg10, Leu9), [3,4-prolyl-3,43H(N)]; 60 minutes, room temperature
Method: Description of the Method of hBK1 Receptor Binding
CHO cells expressing the hBK1 receptor are cultivated in Dulbecco's modified medium. The medium from confluent cultures is removed and the cells are washed with PBS buffer, scraped off and isolated by centrifugation. The cells are then homogenized in suspension and the homogenate is centrifuged and resuspended. The protein content is determined and the membrane preparation obtained in this manner is then frozen at −80° C.
After thawing, 200 μl of the homogenate (50 to 100 μg of proteins/assay) are incubated at room temperature with 0.5 to 1.0 nM of kallidin (DesArg10, Leu9), [3,4-prolyl-3,43H(N)] and increasing concentrations of the test substance in a total volume of 250 μl for 60 minutes. The incubation is terminated by rapid filtration through GF/B glass fibre filters which had been pretreated with polyethyleneimine (0.3%). The protein-bound radioactivity is measured in a TopCount NXT. Non-specific binding is defined as radioactivity bound in the presence of 1.0 μM of kallidin (DesArg10, Leu9), [3,4-prolyl-3,43H(N)]. The concentration/binding curve is analysed using a computer-assisted nonlinear curve fitting. The K which corresponds to the test substance is determined using the data obtained in this manner. […]

COc1cc(C)c(S(=O)(=O)N(C)CCOCC(=O)N(C)[C@@H]2CCN(C3CCN(C)CC3)C2)c(C)c1 [(394)]
Ki: 1.04 nM
